Test: Biodistribution of the 99mTc(N) heterocomplexes in rats (organ uptake, heart accumulation, heart/lung and heart/liver ratios)
Assay type: in vivo, female Sprague-Dawley rats
Details: rats
Experimental: The biodistribution was measured by using female Sprague-Dawley rats (SD rats) weighing 200 g to 250 g. Each of the ^99mTc(N) heterocomplexes purified in the manner described above was diluted with phosphate buffer (0.1 M, pH=7.4) to obtain a final solution having an ethanol content of 10%. After the SD rats were anesthetized with an intramuscular injection of a mixture of ketamine (80 mg/kg) and xilazine (19 mg/kg), the jugular vein of each rat was surgically exposed and 100 μL (300 to 370 kBq) of the solution containing each ^99mTc(N) heterocomplexes prepared in the manner described above was injected in the jugular vein. The rats (n=3) were sacrificed by cervical dislocation at different times post injection. The blood was withdrawn from the heart through a syringe and counted. It was assumed that the whole blood content was 6.5% of the total body weight. The organs were excised from the rats, washed with physiological saline, weighed, and counted in a NaI well counter.
For comparison, Tables 19 and 20 show the results, obtained in the same manner as above, of measuring the biodistribution of (^99mTc) (MIBI) and (^99mTc) (Tf) which have been used as pharmaceuticals for diagnostic imaging for blood flow in myocardium.
Tables 21 to 23 show data showing the variations with time of heart accumulation, heart/lung ratios and heart/liver ratios for the ^99mTc(N) heterocomplexes of the present invention.

[99Tc].[C-]#[N+]CC(C)(C)OC.[C-]#[N+]CC(C)(C)OC.[C-]#[N+]CC(C)(C)OC.[C-]#[N+]CC(C)(C)OC.[C-]#[N+]CC(C)(C)OC.[C-]#[N+]CC(C)(C)OC [(^99mTc) (MIBI), reference compound]
Biodistribution, Adrenal glands (0 min): 2.80 ± 0.17 % ID/g
Biodistribution, Blood (0 min): 0.34 ± 0.07 % ID/g
Biodistribution, Brain (0 min): 0.26 ± 0.01 % ID/g
Biodistribution, Heart (0 min): 3.56 ± 0.22 % ID/g
Biodistribution, Intestine (0 min): 3.55 ± 0.37 % ID/g
Biodistribution, Kidneys (0 min): 9.23 ± 0.62 % ID/g
Biodistribution, Liver (0 min): 1.36 ± 0.12 % ID/g
Biodistribution, Lungs (0 min): 1.65 ± 0.08 % ID/g
Biodistribution, Muscle (0 min): 0.24 ± 0.04 % ID/g
Biodistribution, Spleen (0 min): 2.65 ± 0.26 % ID/g
Biodistribution, Submaxillary glands (0 min): 1.43 ± 0.41 % ID/g
Biodistribution, Adrenal glands (2 min): 1.60 ± 0.01 % ID/g
Biodistribution, Blood (2 min): 0.11 ± 0.01 % ID/g
Biodistribution, Brain (2 min): 0.04 ± 0.01 % ID/g
Biodistribution, Heart (2 min): 3.25 ± 0.17 % ID/g
Biodistribution, Intestine (2 min): 3.71 ± 0.01 % ID/g
Biodistribution, Kidneys (2 min): 10.12 ± 0.15 % ID/g
Biodistribution, Liver (2 min): 1.88 ± 0.08 % ID/g
Biodistribution, Lungs (2 min): 1.18 ± 0.13 % ID/g
Biodistribution, Muscle (2 min): 0.14 ± 0.00 % ID/g
Biodistribution, Spleen (2 min): 2.76 ± 0.66 % ID/g
Biodistribution, Submaxillary glands (2 min): 1.01 ± 0.23 % ID/g
Biodistribution, Adrenal glands (10 min): 3.28 ± 0.39 % ID/g
Biodistribution, Blood (10 min): 0.07 ± 0.01 % ID/g
Biodistribution, Brain (10 min): 0.05 ± 0.01 % ID/g
Biodistribution, Heart (10 min): 3.37 ± 0.45 % ID/g
Biodistribution, Intestine (10 min): 5.40 ± 0.33 % ID/g
Biodistribution, Kidneys (10 min): 11.45 ± 1.62 % ID/g
Biodistribution, Liver (10 min): 2.21 ± 0.27 % ID/g
Biodistribution, Lungs (10 min): 1.36 ± 0.31 % ID/g
Biodistribution, Muscle (10 min): 0.18 ± 0.01 % ID/g
Biodistribution, Spleen (10 min): 3.16 ± 0.62 % ID/g
Biodistribution, Submaxillary glands (10 min): 1.12 ± 0.12 % ID/g
Biodistribution, Adrenal glands (20 min): 3.05 ± 0.04 % ID/g
Biodistribution, Blood (20 min): 0.05 ± 0.01 % ID/g
Biodistribution, Brain (20 min): 0.04 ± 0.01 % ID/g
Biodistribution, Heart (20 min): 3.16 ± 0.22 % ID/g
Biodistribution, Intestine (20 min): 4.90 ± 0.23 % ID/g
Biodistribution, Kidneys (20 min): 8.14 ± 1.30 % ID/g
Biodistribution, Liver (20 min): 1.98 ± 0.60 % ID/g
Biodistribution, Lungs (20 min): 0.99 ± 0.11 % ID/g
Biodistribution, Muscle (20 min): 0.15 ± 0.05 % ID/g
Biodistribution, Spleen (20 min): 2.11 ± 0.18 % ID/g
Biodistribution, Submaxillary glands (20 min): 1.07 ± 0.04 % ID/g
Biodistribution, Adrenal glands (30 min): 3.49 ± 0.67 % ID/g
Biodistribution, Blood (30 min): 0.05 ± 0.01 % ID/g
Biodistribution, Brain (30 min): 0.04 ± 0.02 % ID/g
Biodistribution, Heart (30 min): 3.70 ± 0.04 % ID/g
Biodistribution, Intestine (30 min): 5.42 ± 0.05 % ID/g
Biodistribution, Kidneys (30 min): 6.46 ± 0.11 % ID/g
Biodistribution, Liver (30 min): 1.37 ± 0.22 % ID/g
Biodistribution, Lungs (30 min): 0.72 ± 0.01 % ID/g
Biodistribution, Muscle (30 min): 0.17 ± 0.05 % ID/g
Biodistribution, Spleen (30 min): 2.89 ± 0.29 % ID/g
Biodistribution, Submaxillary glands (30 min): 1.08 ± 0.09 % ID/g
Biodistribution, Adrenal glands (60 min): 3.50 ± 0.60 % ID/g
Biodistribution, Blood (60 min): 0.03 ± 0.00 % ID/g
Biodistribution, Brain (60 min): 0.04 ± 0.00 % ID/g
Biodistribution, Heart (60 min): 3.18 ± 0.17 % ID/g
Biodistribution, Intestine (60 min): 6.49 ± 1.43 % ID/g
Biodistribution, Kidneys (60 min): 4.42 ± 0.11 % ID/g
Biodistribution, Liver (60 min): 1.57 ± 0.11 % ID/g
Biodistribution, Lungs (60 min): 0.47 ± 0.24 % ID/g
Biodistribution, Muscle (60 min): 0.18 ± 0.01 % ID/g
Biodistribution, Spleen (60 min): 1.88 ± 0.15 % ID/g
Biodistribution, Submaxillary glands (60 min): 1.17 ± 0.05 % ID/g
Biodistribution, Adrenal glands (120 min): 2.43 ± 0.13 % ID/g
Biodistribution, Blood (120 min): 0.02 ± 0.00 % ID/g
Biodistribution, Brain (120 min): 0.03 ± 0.00 % ID/g
Biodistribution, Heart (120 min): 3.04 ± 0.14 % ID/g
Biodistribution, Intestine (120 min): 4.15 ± 1.02 % ID/g
Biodistribution, Kidneys (120 min): 3.49 ± 0.05 % ID/g
Biodistribution, Liver (120 min): 1.02 ± 0.23 % ID/g
Biodistribution, Lungs (120 min): 0.47 ± 0.06 % ID/g
Biodistribution, Muscle (120 min): 0.28 ± 0.05 % ID/g
Biodistribution, Spleen (120 min): 1.23 ± 0.18 % ID/g
Biodistribution, Submaxillary glands (120 min): 1.19 ± 0.05 % ID/g

From US7445765B2, “Radiopharmaceutical for diagnostic imaging containing a technetium-99m nitride heterocomplex” (Nihon Medi-Physics Co., Ltd., priority 2000, dated 2008)
